We go through three compounds from patent EP3974434B1, “MACROLIDE DERIVATIVES, PREPARATION METHOD AND APPLICATION THEREOF” (Zhejiang Hisun Pharmaceutical Co., Ltd., priority 2019, dated 2020).

Where two headings read alike, the source gives them in different places.

One data set addresses T1, TRKA(G595R) (Homo sapiens, UniProt P04629, G595R).
T1 construct: purchased SignalChem N16-12BG-10
Briefly: HTRF KinEASE-TK kinase activity inhibition assay, TRKA(G595R). Format: biochemical. The following applies: ATP 7 µM. From the text:
(§1) The following method was used to determine the inhibition degrees of the compounds of the present invention on the activity of recombinant human NTRK family kinase in vitro. In this method, HTRF®KinEASE-TK tyrosine kinase kit (article number: 62TK0PEB) of Cisbio company was used, and the principle of the kit was based on time-resolved fluorescence resonance energy transfer (TF-FRET), and the inhibition of the compounds on the activity of the NTRK kinase was reflected by determining a phosphorylation degree of a biotinylated polypeptide substrate mediated by NTRK kinase. For detailed experimental operation, please refer to the kit instruction. Recombinant human wild-type NTRK proteins were purchased from Carna bioscience (the article numbers were TRKA #08-186, TRKB #08-187 and TRKC #08-197 respectively), and recombinant human mutant NTRK proteins were purchased from SignalChem (the article numbers were TRKA G595R #N16-12BG-10, TRKA G667C # N16-12CG-10, and TRKC G623R # N18-12CH-10 respectively).
(§2) The experimental methods were operated according to the steps in the kit instruction, and were briefly described as follows: a test compound was first dissolved in DMSO to prepare a storage solution, and then diluted in gradient with a buffer provided in the kit. A final concentration of the test compound in the reaction system ranged from 1,000 nM to 0.004 nM. An ATP Km value concentration of each NTRK protein was determined by using an ATP solution diluted in gradient (Sangon Biotech (Shanghai) Co., Ltd., A600311). According to the Km value obtained, the ATP concentrations in the reaction system were set as 100 µM for TRKA, 10 µM for TRKB, 50 µM for TRKC, 7 µM for TRKA(G595R), 1 µM for TRKA(G667C) and 100 µM for TRKC(G623R). The reaction was carried out in a 384-well microplate. Firstly, the compound and a certain amount of corresponding NTRK protein were added to the wells and incubated for 5 minutes to 10 minutes at room temperature. Then, the ATP solution and the biotinylated polypeptide substrate solution were added to the reaction solution and incubated with shaking at room temperature for 60 minutes. Then, an anti-phosphorylated tyrosine antibody coupled with a europium compound and streptavidin coupled with modified allophycocyanin XL665 were added to the reaction, and continuously incubated with shaking at room temperature for 1 hour. After incubation, fluorescence intensity values of each well at an excitation wavelength of 304 nm, and emission wavelengths of 620 nm and 665 nM were determined in a TF-FRET mode on a microplate reader. Compared with the fluorescence intensity ratio of a control group (0.1% DMSO), the percentage inhibition rates of the compound at each concentration were calculated, and the IC50 value of the compound was obtained by performing nonlinear regression analysis for logarithmic value of the compound concentration - inhibition rate by GraphPad Prism 5 software, which can be seen in Table 1. Table 1 IC50 data of the compounds of the present invention on TRK enzyme activity inhibition
Background: In TR-FRET formats the signal depends on donor and acceptor labels being close together.

The target in a further data set is T2, TRKA (Homo sapiens, UniProt P04629).
T2 construct: purchased Carna bioscience 08-186
T2 sequence (P04629 33-796): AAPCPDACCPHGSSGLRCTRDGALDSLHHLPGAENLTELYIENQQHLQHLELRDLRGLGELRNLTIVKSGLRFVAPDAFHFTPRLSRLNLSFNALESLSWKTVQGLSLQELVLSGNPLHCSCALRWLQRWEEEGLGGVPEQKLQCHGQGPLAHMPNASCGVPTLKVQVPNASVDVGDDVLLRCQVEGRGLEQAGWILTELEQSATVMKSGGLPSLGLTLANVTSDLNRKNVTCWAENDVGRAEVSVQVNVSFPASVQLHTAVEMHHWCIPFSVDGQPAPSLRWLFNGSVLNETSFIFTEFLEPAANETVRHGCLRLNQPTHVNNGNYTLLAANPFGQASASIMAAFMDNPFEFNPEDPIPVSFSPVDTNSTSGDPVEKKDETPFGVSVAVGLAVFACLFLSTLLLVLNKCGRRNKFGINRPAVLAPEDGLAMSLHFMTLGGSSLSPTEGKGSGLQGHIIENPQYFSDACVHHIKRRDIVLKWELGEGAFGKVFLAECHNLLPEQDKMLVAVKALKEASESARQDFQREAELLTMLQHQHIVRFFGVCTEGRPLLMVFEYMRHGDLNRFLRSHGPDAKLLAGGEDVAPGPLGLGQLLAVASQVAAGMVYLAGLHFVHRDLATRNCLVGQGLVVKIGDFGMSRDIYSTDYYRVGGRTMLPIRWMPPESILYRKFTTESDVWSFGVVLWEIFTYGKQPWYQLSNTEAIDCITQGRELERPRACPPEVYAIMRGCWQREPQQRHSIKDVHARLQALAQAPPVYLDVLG
As to the kind of experiment: HTRF KinEASE-TK kinase activity inhibition assay, TRKA. The following applies: ATP 100 µM. Format: biochemical.
From the text: as §1, §2

The next data set addresses T3, TRKC (Homo sapiens, UniProt Q16288).
T3 construct: purchased Carna bioscience 08-197
Briefly: HTRF KinEASE-TK kinase activity inhibition assay, TRKC. Format: biochemical. The settings on record: ATP 50 µM.
From the text: as §1, §2

A further data set concerns the target T4, TRKB (Homo sapiens, UniProt Q16620).
T4 construct: purchased Carna bioscience 08-187
As to the kind of experiment: HTRF KinEASE-TK kinase activity inhibition assay, TRKB. Format: biochemical. The following applies: ATP 10 µM.
From the text: as §1, §2

A further data set has as its target T5, TRKC(G623R) (Homo sapiens, UniProt Q16288, G623R).
T5 construct: purchased SignalChem N18-12CH-10
Briefly: HTRF KinEASE-TK kinase activity inhibition assay, TRKC(G623R). The settings on record: ATP 100 µM. Format: biochemical.
From the text: as §1
as §2, with “Then, an anti-phosphorylated tyrosine antibody coupled with a europium compound and streptavidin coupled with modified allophycocyanin XL665 were added to the reaction, and continuously incubated with shaking at room temperature for 1 hour.” left out, “Table 1 IC50 data of the compounds of the present invention on TRK enzyme activity inhibition” left out

Data set [1] can be described thus: Pharmacokinetic study on ICR mice (plasma, LC-MS/MS). Format: in vivo. The following applies: male, mouse; for AUC(0-inf): read-out: Area under curve AUC0-∞; for half-life: read-out: Half-life T1/2(h) (converted). The procedure:
ICR mice, male, 29.0 g to 33.8g, purchased from Beijing Charles River Laboratory Animal Technology Co., Ltd.
Intravenous injection group: an appropriate amount of drug was weighed, and added with mixed solvent (DMA: 30% Solutol HS-15: Saline = 10: 10: 80 (v/v/v)) to prepare the drug with a final concentration of 0.2 mg/mL.
Oral gavage administration group: an appropriate amount of drug was weighed, added with an appropriate amount of sodium carboxymethyl cellulose (CMC-Na, containing 0.5% Tween 80), vortex shaked, and ultrasonically prepared into […] suspension.
For ICR mice, each compound to be tested was divided into an intravenous injection group (9 mice in each group) and an intragastric group (9 mice in each group). The ICR mice were fasted overnight and then administered by orbital intravenous injection (administration dose of 1 mg/kg, and administration volume of 5 mL/kg) and administered by intragastric injection (administration dose of 5 mg/kg, and administration volume of 10 mL/kg), and ate 4 hours after administration.
About 0.2 mL of blood was collected via jugular vein before administration and 0.083 hour, 0.25 hour, 0.5 hour, 1 hour, 2 hours, 4 hours, 8 hours, 12 hours and 24 hours after administration, and heparin sodium was used for anticoagulation. The collected blood samples were placed on ice, and plasma was separated by centrifugation (centrifugation condition: 1500 g, 10 minutes). The collected plasma was stored at-40°C to -20°C before analysis.
LC-MS/MS was used to determine the contents of different compounds to be tested in mouse plasma after intravenous injection and intragastric administration.
The pharmacokinetic parameters of the compounds of the present invention and the positive control can be seen in Table 8. Table 8 Results of pharmacokinetic parameters

Another data set deals with T6, TRKA(G667C) (Homo sapiens, UniProt P04629, G667C).
T6 construct: purchased SignalChem N16-12CG-10
T6 sequence (P04629 33-796 G667C): as the sequence (P04629 33-796) above, with G635C counted along it
As to the kind of experiment: HTRF KinEASE-TK kinase activity inhibition assay, TRKA(G667C). Format: biochemical. The following applies: ATP 1 µM.
From the text: as §1, §2

Setting [2] is: intravenous, 1 mg/kg, injection.

T1 sequence (P04629 33-796 G595R): as the sequence (P04629 33-796) above, with G563R counted along it
T4 sequence (Q16620 32-822): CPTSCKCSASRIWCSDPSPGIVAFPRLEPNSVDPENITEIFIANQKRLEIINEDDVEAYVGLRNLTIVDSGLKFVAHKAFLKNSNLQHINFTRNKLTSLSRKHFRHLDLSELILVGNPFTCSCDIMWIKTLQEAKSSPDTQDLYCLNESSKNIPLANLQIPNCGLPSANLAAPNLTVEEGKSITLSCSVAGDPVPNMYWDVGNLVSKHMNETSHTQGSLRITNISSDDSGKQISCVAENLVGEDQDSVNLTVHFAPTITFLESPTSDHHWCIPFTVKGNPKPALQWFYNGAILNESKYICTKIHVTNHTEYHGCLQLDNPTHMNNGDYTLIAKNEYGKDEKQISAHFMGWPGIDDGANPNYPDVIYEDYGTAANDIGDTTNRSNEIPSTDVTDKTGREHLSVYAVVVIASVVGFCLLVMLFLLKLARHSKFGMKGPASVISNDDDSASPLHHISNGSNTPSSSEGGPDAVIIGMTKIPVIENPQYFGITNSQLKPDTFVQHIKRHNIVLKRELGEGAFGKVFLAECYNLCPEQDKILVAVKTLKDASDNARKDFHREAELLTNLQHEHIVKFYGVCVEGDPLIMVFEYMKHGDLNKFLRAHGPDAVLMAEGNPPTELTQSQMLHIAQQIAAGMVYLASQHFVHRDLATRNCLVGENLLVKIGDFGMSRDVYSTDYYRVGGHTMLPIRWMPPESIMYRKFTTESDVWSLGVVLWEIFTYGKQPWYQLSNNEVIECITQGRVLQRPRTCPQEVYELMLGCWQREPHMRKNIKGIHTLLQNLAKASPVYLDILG
T5 sequence (Q16288 32-839 G623R): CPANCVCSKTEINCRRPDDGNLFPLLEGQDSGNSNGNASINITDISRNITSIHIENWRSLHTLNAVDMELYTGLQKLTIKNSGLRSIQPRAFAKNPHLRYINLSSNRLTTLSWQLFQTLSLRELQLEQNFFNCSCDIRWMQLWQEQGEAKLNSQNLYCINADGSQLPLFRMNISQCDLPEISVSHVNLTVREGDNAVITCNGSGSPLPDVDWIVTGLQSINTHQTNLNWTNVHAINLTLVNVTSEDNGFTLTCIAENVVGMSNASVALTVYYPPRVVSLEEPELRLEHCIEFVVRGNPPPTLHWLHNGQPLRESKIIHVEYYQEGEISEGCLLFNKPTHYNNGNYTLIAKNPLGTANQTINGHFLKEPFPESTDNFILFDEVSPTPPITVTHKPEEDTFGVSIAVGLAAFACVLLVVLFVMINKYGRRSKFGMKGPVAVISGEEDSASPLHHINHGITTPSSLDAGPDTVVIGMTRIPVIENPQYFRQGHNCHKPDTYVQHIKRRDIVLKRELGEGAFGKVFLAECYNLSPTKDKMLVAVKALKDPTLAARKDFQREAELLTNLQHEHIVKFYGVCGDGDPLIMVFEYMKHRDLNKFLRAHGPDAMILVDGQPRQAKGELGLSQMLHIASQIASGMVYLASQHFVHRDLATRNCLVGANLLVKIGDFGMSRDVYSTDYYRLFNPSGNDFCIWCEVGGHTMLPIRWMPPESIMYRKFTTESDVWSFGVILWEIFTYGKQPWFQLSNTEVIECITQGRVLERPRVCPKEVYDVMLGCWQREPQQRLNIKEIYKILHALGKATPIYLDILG
T3 sequence (Q16288 32-839): as the sequence (Q16288 32-839 G623R) above, with R592G counted along it

The IC50 is the midpoint of a concentration-inhibition curve. Low values mean greater potency in that assay, high ones weaker potency in that assay. The bioavailability is dose-corrected exposure relative to a reference, in per cent. What is called clearance is a measure of how efficiently the substance is removed, as volume per time. On to `C[C@H]1Nc2ccn3ncc(c3n2)C(=O)NCC2(C)Cc3cc(F)cc1c3O2` (stereo partly drawn) [Example 5, (3R)-6-fluoro-3,11-dimethyl-10-oxa-2,13,17,18,21-pentaazapentacyclo[13.5.2.1^8,11.0^4,9.0^18,22]tricosa-1 (21),4,6,8,15(22),16,19-heptaen-14-one], for which the IC50 against TRKA(G595R) turned out to be 4.31 nM; against TRKA it was 0.92 nM; against TRKC it was 2.63 nM; on TRKB it was 0.76 nM; on TRKC(G623R), 14.5 nM. In data set [1] (5 mg/kg oral intake vs 1 mg/kg injection, read-out: Bioavailability F(%)), the bioavailability came to 65%. The AUC(0-inf) in data set [1] (5 mg/kg, oral intake) amounted to 6040 ng·h/mL; in data set [1] (setting [2]) it was 1850 ng·h/mL. Moreover, the Cmax in data set [1] (5 mg/kg, oral intake, read-out: Blood concentration Cmax) is 2600 ng/mL. Moreover, the half-life in data set [1] (5 mg/kg, oral intake) was 2.03 h; in data set [1] (setting [2]), 1.79 h. In data set [1] (intravenous, 1 mg/kg, injection, read-out: Clearance rate), the clearance was 9 mL/min/kg.
`C[C@H]1Nc2ccn3ncc(c3n2)C(=O)NC[C@@H]2COc3cc(F)cc1c3O2` [Example 7, (2R,14R)-19-fluoro-2-methyl-16,22-dioxa-3,5,7,8, 12-pentaazapentacyclo[12.6.2.2^4,7.0^6,10.0^17,21]tetrac osa-1(20),4,6(10),8,17(21),18,23-heptaen-11-one]: the IC50 on TRKA(G595R) was determined as 2.65 nM; against TRKA, 2.05 nM; on TRKB it was 0.32 nM; against TRKC(G623R), 25.3 nM; against TRKA(G667C) it was 21.1 nM.
For the compound `C[C@H]1Nc2ccn3ncc(c3n2)C(=O)NCC2(C)Cc3cc(Cl)cc1c3O2` (stereo partly drawn) [Example 22, (3R)-6-chloro-3,11-dimethyl-10-oxa-2,13,17,18,21-pentaazapentacyclo[13.5.2.1^8,11.0^4,9.0^18,22]tricosa-1 (21),4,6,8,15(22),16,19-heptaen-14-one], the IC50 on TRKA(G595R) was determined as 4.97 nM; against TRKA, 0.98 nM; against TRKC, 0.52 nM; at TRKB, 0.36 nM; against TRKC(G623R), 7.4 nM; at TRKA(G667C) it was 4.6 nM.
